From US20050014215A1, “Method and medium for the detecting/identifying microorganisms with esterase and/or r osidase and/or peptidase and/or sulfatase and/or phosphatase activity” (priority 2000, published 2005)

How the values were obtained:
[1] = Substrate solubility with different FASE (Example 8); type: physicochemical; conditions: 40% DMSO, 60% Tween
Procedure: Different stock solutions of substrate are prepared in DMSO in the presence of Tween® 20, Tween® 80 (polyethoxylated sorbitan monooleate), Tween® 60 (polyethoxylated sorbitan monostearate) or Tween® 65 (polyethoxylated sorbitan tristearate). A volume corresponding to a final concentration of 500 mg/l of substrate is then added to a supercooled gelled medium, namely MacConkey medium.

Listeria ivanovii 18 = assay: Colony coloration on fresh and stored media, Example 10 (6-chloro-3-indolyl-β-N-acetylglucosaminide, Columbia); type: cell-based; design: key to intensity of coloration (arbitrary scale): 0: no activity; 0.1: trace of coloration; 0.5: very pale coloration; 1: distinct coloration of low intensity; 2: clear coloration of medium intensity; 3: intense coloration; 4: very intense coloration; —: absence of coloration or intensity; key to color: M: magenta; —: colorless
Procedure: (§1) Two stock solutions of substrate were prepared, one having a concentration of 50 g/l in DMF and the other having a concentration of 50 g/l in a mixture of DMF (40%) and Tween® 20 (60%). A volume corresponding to a final concentration of 175 mg/l of substrate was then added to a supercooled gelled medium, namely Columbia medium not supplemented with blood. […] After three weeks, six weeks, nine weeks and twelve weeks, two media like those described above were prepared for immediate use.
(§2) Microorganisms originating from the Applicant's collection were inoculated from a 0.5 McFarland suspension, by isolation in three quadrants, onto the two media prepared for immediate use and the two media stored at +4° C. The dishes were incubated at 37° C. for 48 hours. The colonies formed were examined visually after 24 and 48 hours of incubation. The coloration of these colonies and the intensity of this coloration were noted.

[2] = system: Listeria monocytogenes 23; assay: as above; type: cell-based; design: key to intensity of coloration (arbitrary scale): 0: no activity; 0.1: trace of coloration; 0.5: very pale coloration; 1: distinct coloration of low intensity; 2: clear coloration of medium intensity; 3: intense coloration; 4: very intense coloration; —: absence of coloration or intensity; key to color: M: magenta; —: colorless
Procedure: as §1, §2

Listeria innocua 36 = assay: as above; type: cell-based; design: key to intensity of coloration (arbitrary scale): 0: no activity; 0.1: trace of coloration; 0.5: very pale coloration; 1: distinct coloration of low intensity; 2: clear coloration of medium intensity; 3: intense coloration; 4: very intense coloration; —: absence of coloration or intensity; key to color: M: magenta; —: colorless
Procedure: as §1, §2

Staphylococcus aureus 20 = assay: as above; type: cell-based; design: key: M: magenta; —: colorless
Procedure: as §1, §2

[3] = system: Pseudomonas aeruginosa 165; assay: as above; type: cell-based; design: key: M: magenta; —: colorless
Procedure: as §1, §2

[4] = IT 24 h, fresh medium, DMF Tween 20, 6-week comparison
[5] = IT 24 h, fresh medium, DMF Tween 20, 9-week comparison
[6] = IT 24 h, fresh medium, DMF Tween 20, 12-week comparison
[7] = IT 24 h, fresh medium, DMF, 6-week comparison
[8] = IT 24 h, fresh medium, DMF, 9-week comparison
[9] = IT 24 h, fresh medium, DMF, 12-week comparison
[10] = IT 24 h, medium stored for 6 weeks at +4° C., DMF
[11] = IT 24 h, medium stored for 6 weeks at +4° C., DMF Tween 20
[12] = IT 24 h, medium stored for 9 weeks at +4° C., DMF
[13] = IT 24 h, medium stored for 9 weeks at +4° C., DMF Tween 20
[14] = IT 24 h, medium stored for 12 weeks at +4° C., DMF
[15] = IT 24 h, medium stored for 12 weeks at +4° C., DMF Tween 20
[16] = IT 48 h, fresh medium, DMF Tween 20, 6-week comparison
[17] = IT 48 h, fresh medium, DMF Tween 20, 9-week comparison
[18] = IT 48 h, fresh medium, DMF Tween 20, 12-week comparison
[19] = IT 48 h, fresh medium, DMF, 6-week comparison
[20] = IT 48 h, fresh medium, DMF, 9-week comparison
[21] = IT 48 h, fresh medium, DMF, 12-week comparison
[22] = IT 48 h, medium stored for 6 weeks at +4° C., DMF
[23] = IT 48 h, medium stored for 6 weeks at +4° C., DMF Tween 20
[24] = IT 48 h, medium stored for 9 weeks at +4° C., DMF
[25] = IT 48 h, medium stored for 9 weeks at +4° C., DMF Tween 20
[26] = IT 48 h, medium stored for 12 weeks at +4° C., DMF
[27] = IT 48 h, medium stored for 12 weeks at +4° C., DMF Tween 20

polyethoxylated sorbitan monolaurate containing 20 units of ethylene oxide (EO) [TWEEN® 20]
good substrate solubility: substrate solubility [1]

CC(=O)N[C@H]1[C@H](Oc2c[nH]c3cc(Cl)ccc23)O[C@H](CO)[C@@H](O)[C@@H]1O
2: intensity of coloration (arbitrary scale) (Listeria ivanovii 18; [22]) | intensity of coloration (arbitrary scale) (Listeria ivanovii 18; [27]) | intensity of coloration (arbitrary scale) [2, 4] | intensity of coloration (arbitrary scale) [2, 5] | intensity of coloration (arbitrary scale) [2, 6] | intensity of coloration (arbitrary scale) [2, 7] | intensity of coloration (arbitrary scale) [2, 8] | intensity of coloration (arbitrary scale) [2, 9] | intensity of coloration (arbitrary scale) [2, 11] | intensity of coloration (arbitrary scale) [2, 22] | intensity of coloration (arbitrary scale) [2, 25] | intensity of coloration (arbitrary scale) [2, 27] | intensity of coloration (arbitrary scale) (Listeria innocua 36; [4]) | intensity of coloration (arbitrary scale) (Listeria innocua 36; [5]) | intensity of coloration (arbitrary scale) (Listeria innocua 36; [6]) | intensity of coloration (arbitrary scale) (Listeria innocua 36; [7]) | intensity of coloration (arbitrary scale) (Listeria innocua 36; [8]) | intensity of coloration (arbitrary scale) (Listeria innocua 36; [9]) | intensity of coloration (arbitrary scale) (Listeria innocua 36; [11]) | intensity of coloration (arbitrary scale) (Listeria innocua 36; [22])
1: intensity of coloration (arbitrary scale) (Listeria ivanovii 18; [13]) | intensity of coloration (arbitrary scale) (Listeria ivanovii 18; [15]) | intensity of coloration (arbitrary scale) [2, 10] | intensity of coloration (arbitrary scale) [2, 13] | intensity of coloration (arbitrary scale) [2, 15] | intensity of coloration (arbitrary scale) (Listeria innocua 36; [10]) | intensity of coloration (arbitrary scale) (Listeria innocua 36; [15]) | intensity of coloration (arbitrary scale) (Listeria innocua 36; [24])
0.5: intensity of coloration (arbitrary scale) (Listeria ivanovii 18; [10]) | intensity of coloration (arbitrary scale) (Listeria ivanovii 18; [24]) | intensity of coloration (arbitrary scale) [2, 12] | intensity of coloration (arbitrary scale) [2, 24] | intensity of coloration (arbitrary scale) (Listeria innocua 36; [12]) | intensity of coloration (arbitrary scale) (Listeria innocua 36; [26])
M: color (Listeria ivanovii 18; [4]) | color (Listeria ivanovii 18; [5]) | color (Listeria ivanovii 18; [6]) | color (Listeria ivanovii 18; [7]) | color (Listeria ivanovii 18; [8]) | color (Listeria ivanovii 18; [9]) | color (Listeria ivanovii 18; [10]) | color (Listeria ivanovii 18; [11]) | color (Listeria ivanovii 18; [12]) | color (Listeria ivanovii 18; [13]) | color (Listeria ivanovii 18; [14]) | color (Listeria ivanovii 18; [15]) | color (Listeria ivanovii 18; [16]) | color (Listeria ivanovii 18; [17]) | color (Listeria ivanovii 18; [18]) | color (Listeria ivanovii 18; [19]) | color (Listeria ivanovii 18; [20]) | color (Listeria ivanovii 18; [21]) | color (Listeria ivanovii 18; [22]) | color (Listeria ivanovii 18; [23]) | color (Listeria ivanovii 18; [24]) | color (Listeria ivanovii 18; [25]) | color (Listeria ivanovii 18; [26]) | color (Listeria ivanovii 18; [27]) | color [2, 4] | color [2, 5] | color [2, 6] | color [2, 7] | color [2, 8] | color [2, 9] | color [2, 10] | color [2, 11] | color [2, 12] | color [2, 13] | color [2, 14] | color [2, 15] | color [2, 16] | color [2, 17] | color [2, 18] | color [2, 19] | color [2, 20] | color [2, 21] | color [2, 22] | color [2, 23] | color [2, 24] | color [2, 25] | color [2, 26] | color [2, 27] | color (Listeria innocua 36; [4]) | color (Listeria innocua 36; [5]) | color (Listeria innocua 36; [6]) | color (Listeria innocua 36; [7]) | color (Listeria innocua 36; [8]) | color (Listeria innocua 36; [9]) | color (Listeria innocua 36; [10]) | color (Listeria innocua 36; [11]) | color (Listeria innocua 36; [12]) | color (Listeria innocua 36; [13]) | color (Listeria innocua 36; [14]) | color (Listeria innocua 36; [15]) | color (Listeria innocua 36; [16]) | color (Listeria innocua 36; [17]) | color (Listeria innocua 36; [18]) | color (Listeria innocua 36; [19]) | color (Listeria innocua 36; [20]) | color (Listeria innocua 36; [21]) | color (Listeria innocua 36; [22]) | color (Listeria innocua 36; [23]) | color (Listeria innocua 36; [24]) | color (Listeria innocua 36; [25]) | color (Listeria innocua 36; [26]) | color (Listeria innocua 36; [27])
2.5: intensity of coloration (arbitrary scale) (Listeria ivanovii 18; [16]) | intensity of coloration (arbitrary scale) (Listeria ivanovii 18; [17]) | intensity of coloration (arbitrary scale) (Listeria ivanovii 18; [18]) | intensity of coloration (arbitrary scale) (Listeria ivanovii 18; [19]) | intensity of coloration (arbitrary scale) (Listeria ivanovii 18; [20]) | intensity of coloration (arbitrary scale) (Listeria ivanovii 18; [21]) | intensity of coloration (arbitrary scale) (Listeria ivanovii 18; [23]) | intensity of coloration (arbitrary scale) (Listeria ivanovii 18; [25]) | intensity of coloration (arbitrary scale) (Listeria innocua 36; [25]) | intensity of coloration (arbitrary scale) (Listeria innocua 36; [27])
1.5: intensity of coloration (arbitrary scale) (Listeria ivanovii 18; [4]) | intensity of coloration (arbitrary scale) (Listeria ivanovii 18; [5]) | intensity of coloration (arbitrary scale) (Listeria ivanovii 18; [6]) | intensity of coloration (arbitrary scale) (Listeria ivanovii 18; [7]) | intensity of coloration (arbitrary scale) (Listeria ivanovii 18; [8]) | intensity of coloration (arbitrary scale) (Listeria ivanovii 18; [9]) | intensity of coloration (arbitrary scale) (Listeria ivanovii 18; [11]) | intensity of coloration (arbitrary scale) (Listeria innocua 36; [13])
—: color (Staphylococcus aureus 20; [4]) | color (Staphylococcus aureus 20; [5]) | color (Staphylococcus aureus 20; [6]) | color (Staphylococcus aureus 20; [7]) | color (Staphylococcus aureus 20; [8]) | color (Staphylococcus aureus 20; [9]) | color (Staphylococcus aureus 20; [10]) | color (Staphylococcus aureus 20; [11]) | color (Staphylococcus aureus 20; [12]) | color (Staphylococcus aureus 20; [13]) | color (Staphylococcus aureus 20; [14]) | color (Staphylococcus aureus 20; [15]) | color (Staphylococcus aureus 20; [16]) | color (Staphylococcus aureus 20; [17]) | color (Staphylococcus aureus 20; [18]) | color (Staphylococcus aureus 20; [19]) | color (Staphylococcus aureus 20; [20]) | color (Staphylococcus aureus 20; [21]) | color (Staphylococcus aureus 20; [22]) | color (Staphylococcus aureus 20; [23]) | color (Staphylococcus aureus 20; [24]) | color (Staphylococcus aureus 20; [25]) | color (Staphylococcus aureus 20; [26]) | color (Staphylococcus aureus 20; [27]) | color [3, 4] | color [3, 5] | color [3, 6] | color [3, 7] | color [3, 8] | color [3, 9] | color [3, 10] | color [3, 11] | color [3, 12] | color [3, 13] | color [3, 14] | color [3, 15] | color [3, 16] | color [3, 17] | color [3, 18] | color [3, 19] | color [3, 20] | color [3, 21] | color [3, 22] | color [3, 23] | color [3, 24] | color [3, 25] | color [3, 26] | color [3, 27]
3: intensity of coloration (arbitrary scale) [2, 16] | intensity of coloration (arbitrary scale) [2, 17] | intensity of coloration (arbitrary scale) [2, 18] | intensity of coloration (arbitrary scale) [2, 19] | intensity of coloration (arbitrary scale) [2, 20] | intensity of coloration (arbitrary scale) [2, 21] | intensity of coloration (arbitrary scale) [2, 23] | intensity of coloration (arbitrary scale) (Listeria innocua 36; [16]) | intensity of coloration (arbitrary scale) (Listeria innocua 36; [17]) | intensity of coloration (arbitrary scale) (Listeria innocua 36; [18]) | intensity of coloration (arbitrary scale) (Listeria innocua 36; [19]) | intensity of coloration (arbitrary scale) (Listeria innocua 36; [20]) | intensity of coloration (arbitrary scale) (Listeria innocua 36; [21]) | intensity of coloration (arbitrary scale) (Listeria innocua 36; [23])
